The values that follow come from patent US20030068386A1, “Method of treating cancerous disease” (priority 2001, published 2003).

For data set [1] the following is noted: cited from earlier work.
For data set [2], the system named is breast cancer cells (BRCA1, OMIM Number 113705). Kind of data set: AS-induced toxicity to breast cancer cells, crystal violet cell number. The format is cell-based, human.
In data set [3] the test system is normal human fibroblasts. The data set can be described thus: AS-induced toxicity to normal human fibroblasts, crystal violet cell number. The format is cell-based. The settings on record: for effect on AS cytotoxicity to human fibroblasts: ascorbic acid 5 mM, POBN 10 mM, DMSO 0.2 M in incubation medium. Here is the method:
Human fetal fibroblasts were cultured as described herein. Briefly, human fetal hearts of gestational age 16-24 weeks are aseptically obtained after elective termination of normal pregnancy by dilatation and evacuation. The aorta is then cannulated for continuous perfusion of the coronary arteries with calcium-free Tyrode's solution (117 mM NaCl, 5.7 mM KCl, 11 mM glucose, 4.4 mM NaHCO3, 1.5 mM KH2PO4, 1.7 mM MgCl2, HEPES 20 mM, pH 7.4) containing 1 U/ml of Na-heparin at 37° C., bubbled with 100% O2 as described for the Langendorff preparation. After 15 min of washing to clear the blood from the heart, fresh calcium-free Tyrode's solution containing 1.5 mg/ml collagenase A (type III) is recirculated for approximately 20 minutes. The heart dissociates spontaneously, allowing cells to slowly drip and fall on a Petri dish containing 0.25% trypsin, 1 mM EDTA in HBSS. Clumps of cells are dissociated and the resulting suspension poured over a cell strainer. Cells are centrifuged and the pellet resuspended in 20 ml of culture medium [DME supplemented with 10% fetal bovine serum, 50 U/ml PCN, 50 U/ml streptomycin, […] gentamicin, 1 mM non-essential amino acid (Gibco Laboratories), 0.1 mM essential medium vitamins (Gibco Laboratories), 2 mM glutamine, 0.1 mM Na pyruvate]. To obtain primary cardiac fibroblasts, the isolate will be plated in flasks (20 min at 37° C.). The fibroblasts will be passaged at 12×10^6 cells per 75 cm2 culture flask and grown in 5% CO2 at 37° C. After 3 passages in culture, the fibroblast stain using the fibroblast-specific antibody (monoclonal anti-human fibroblast surface protein, Clone 1B10).
The concentration of the hydroxylamine was determined by co-injection of 4-methylpicoline as described in Analytical Chemistry, Stoyanovsky, et al., supra. […] Normal human fibroblasts (800 cells per plate) were treated for 30 minutes at 37° C. with AS in 50 mM phosphate buffer (pH 6.3, open circles; pH 7.4, filled circles) containing 0.15 M NaCl and 0.2 mM CaC12. Thereafter, the fluid was removed, the cells were covered with minimal essential medium containing 10% fetal bovine serum (Sigma Chem. Co.,St. Louis, Mo.) and incubated at 37° C.; after 4 hours, the cell number was determined by the crystal violet method as known by those skilled in the art. Results are from four independent experiments. Each experimental point represents the mean of triplicate±SEM % (Mean value±standard error; n=3) of controls. […] The cells were treated as indicated in FIG. 5B except that in the incubation medium was included (1) ascorbic acid (5 mM) plus SOD (superoxide dismuthase)(300 U per ml) plus catalase (500 U per ml) filled circles, all purchased from Sigma Chem. Co.; (2) POBN (10 mM) open circles; or 3. DMSO ([…]) filled triangles.

As to `[Na+].[Na+].[O-][N+]([O-])=NO` [AS, sodium trioxodinitrate], in data set [1] (alkaline solutions), the stability entry is listed as “relatively stable”. Moreover, in data set [1] (aqueous solution), the pK1 is recorded as 3.0. Besides, the pK2 in data set [1] (aqueous solution) was 9.35. The rate of decomposition result in data set [1] (pH interval of 3.5 to 8.5) is on record as “rapid, proton-independent”. In data set [2] (pH 6.2, 30 minutes at 37° C. with AS, cell number after 4 hours), the “death of treated cells” value is “approximately 70%”. Also, the cell toxicity entry in data set [2] (pH 7.4) and in data set [3] (pH 7.4) was “not observed” throughout. Also, the figures for the “toxicity to normal human fibroblasts” value in data set [3] (acidic conditions) and in data set [3] (non-acidic conditions) were “toxic” and “not toxic”, respectively.

On to `CC(C)(C)[N+]([O-])=Cc1cc[n+]([O-])cc1` [POBN, alpha-(4-Pyridyl-1-oxide)-N-tert-butylnitrone, reference compound], for which the “effect on AS cytotoxicity to human fibroblasts” value (“effect on AS cytotoxicity” below) in data set [3] is listed as “protective effect”.

For the molecule `O=C1O[C@H]([C@@H](O)CO)C(O)=C1O` [ascorbic acid, reference compound], the “effect on AS cytotoxicity” value in data set [3] is listed as “protective effect”.

Regarding `C[S+](C)[O-]` [DMSO, dimethyl sulfoxide, reference compound], the “effect on AS cytotoxicity” value in data set [3] is given as “protective effect”.
